Converted amounts (≈) assume the structure as drawn.
Key:
[1] = system: T1, SD (sorbitol dehydrogenase); assay: absorbance change at […] nm, Lineweaver-Burk; type: biochemical; details: no extract; 0.5 mM NAD+, sorbitol 50-250 mM, 100 mM Tris-HCl pH 9.0
T1 construct: gene SORD; purchased from Sigma-Aldrich; human recombinant cannot be excluded

O=CC(O)CO = assay: purified protein; details: no extract, 0.15 mM NADPH, DL-glyceraldehyde 5-25 mM, 100 mM sodium phosphate pH 6.2
[2] = molecular target: T1, SD (sorbitol dehydrogenase); assay: absorbance change at […] nm (NAD+ reduction); type: biochemical; details: 0.5 mM NAD+, 100 mM sorbitol, 100 mM Tris-HCl pH 9.0

Compound: OC[C@@H](O)[C@@H](O)[C@H](O)[C@@H](O)CO [sorbitol]
- Km [1]: 44.7 mM

Compound: human recombinant AR (aldose reductase) (Homo sapiens)
- Km (O=CC(O)CO): 5.51 mM
- Vmax (O=CC(O)CO): 0.069 µM/min

Compound: O=c1c(O)c(-c2ccc(O)c(O)c2)oc2cc(O)cc(O)c12 [quercetin]
- IC50 [2]: 8.14 ± 2.27 µg/mL (≈ 26.9 µM)

Reference: PMC11701329, “Inhibition of the polyol pathway by Ducrosia anethifolia extract: plausible implications for diabetic retinopathy treatment” (Frontiers in Pharmacology, 2024)
